In patent publication US20230102554A1 (GB002, INC., priority 2019, published 2023):
pIC50: −log10 of the molar value.

Legend:
[1] = molecular target: T1, Human PDGFRβ, cytoplasmic domain (GST-PDGFRβ) (Homo sapiens, UniProt P09619); test: Human PDGFRβ biochemical inhibition assay (off-chip Mobility Shift Assay)
T1 construct: made in house
Description: Human PDGFRβ Biochemical Inhibition Assay
The compounds described herein were tested for the ability to inhibit activity of PDGFRβ which was achieved via use of an off-chip Mobility Shift Assay (MSA). Human PDGFRβ, cytoplasmic domain [557-1106 (end) amino acids of accession number NP_002600.1 (SEQ ID NO: 3)] was expressed as N-terminal GST-fusion protein (88 kDa) using baculovirus expression system (SEQ ID NO: 4). GST-PDGFRβ was purified by using glutathione sepharose chromatography. Test compounds were dissolved in and diluted with dimethylsulfoxide (DMSO) to achieve 1 mM concentration. Then the solution was further diluted 25-fold with assay buffer to make the final test compound solution. The reference compound, Staurosporine, used as the assay positive control was prepared similarly. The 4× compound solution/substrate (CSKtide, 1000 nM)/ATP (Km ATP)/Mg Metal (5 mM) was prepared with kit buffer (20 mM HEPES, 0.01% Triton X-100, 5 mM DTT, pH 7.5), and 2× kinase solution was prepared with assay buffer (20 mM HEPES, 0.01% Triton X-100, 1 mM DTT, pH 7.5). The 5 μL of 4× compound solution, […] of 4× Substrate/ATP/Metal solution, and […] of 2× kinase solution were mixed and incubated in a well of polypropylene 384 well microplate for 1 hour at room temperature. […] of Termination Buffer (QuickScout Screening Assist MSA; Carna Biosciences) was added to the well. The reaction mixture was applied to LabChip™ system (Perkin Elmer), and the product and substrate peptide peaks were separated and quantitated. The kinase reaction was evaluated by the product ratio calculated from peak heights of product(P) and substrate(S) peptides (P/(P+S)). The readout value of reaction control (complete reaction mixture) was set as a 0% inhibition, and the readout value of background (Enzyme(−)) was set as a 100% inhibition, then the percent inhibition of each test solution was calculated.
With respect to PDGFRβ activity: “+++” denotes an IC50 of less than 300 nM; “++” denotes an IC50 of from 300 nM to less than 1000 nM; and “+” denotes an IC50 of 1000 nM or more.

[2] = molecular target: T2, Human PDGFRα, cytoplasmic domain (GST-PDGFRα) (Homo sapiens, UniProt P16234); test: Human PDGFRα biochemical inhibition assay (off-chip Mobility Shift Assay)
T2 construct: made in house
T2 sequence (P16234 550-1089 T674I): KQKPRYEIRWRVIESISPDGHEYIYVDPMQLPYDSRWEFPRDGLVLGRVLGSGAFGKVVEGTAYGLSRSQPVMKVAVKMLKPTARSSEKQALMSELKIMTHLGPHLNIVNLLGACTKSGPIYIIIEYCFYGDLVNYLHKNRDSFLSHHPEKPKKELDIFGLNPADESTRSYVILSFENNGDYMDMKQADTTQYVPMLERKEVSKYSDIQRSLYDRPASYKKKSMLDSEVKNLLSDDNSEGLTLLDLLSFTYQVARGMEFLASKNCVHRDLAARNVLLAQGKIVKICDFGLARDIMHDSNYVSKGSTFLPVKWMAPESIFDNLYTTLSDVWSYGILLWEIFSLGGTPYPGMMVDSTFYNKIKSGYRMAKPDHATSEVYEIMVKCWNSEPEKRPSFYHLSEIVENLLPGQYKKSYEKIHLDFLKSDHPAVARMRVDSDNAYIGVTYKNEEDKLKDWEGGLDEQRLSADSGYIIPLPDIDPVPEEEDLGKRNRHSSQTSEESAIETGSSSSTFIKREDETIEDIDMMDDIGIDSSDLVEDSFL

T1 sequence (P09619 with tags, fused parts or gaps): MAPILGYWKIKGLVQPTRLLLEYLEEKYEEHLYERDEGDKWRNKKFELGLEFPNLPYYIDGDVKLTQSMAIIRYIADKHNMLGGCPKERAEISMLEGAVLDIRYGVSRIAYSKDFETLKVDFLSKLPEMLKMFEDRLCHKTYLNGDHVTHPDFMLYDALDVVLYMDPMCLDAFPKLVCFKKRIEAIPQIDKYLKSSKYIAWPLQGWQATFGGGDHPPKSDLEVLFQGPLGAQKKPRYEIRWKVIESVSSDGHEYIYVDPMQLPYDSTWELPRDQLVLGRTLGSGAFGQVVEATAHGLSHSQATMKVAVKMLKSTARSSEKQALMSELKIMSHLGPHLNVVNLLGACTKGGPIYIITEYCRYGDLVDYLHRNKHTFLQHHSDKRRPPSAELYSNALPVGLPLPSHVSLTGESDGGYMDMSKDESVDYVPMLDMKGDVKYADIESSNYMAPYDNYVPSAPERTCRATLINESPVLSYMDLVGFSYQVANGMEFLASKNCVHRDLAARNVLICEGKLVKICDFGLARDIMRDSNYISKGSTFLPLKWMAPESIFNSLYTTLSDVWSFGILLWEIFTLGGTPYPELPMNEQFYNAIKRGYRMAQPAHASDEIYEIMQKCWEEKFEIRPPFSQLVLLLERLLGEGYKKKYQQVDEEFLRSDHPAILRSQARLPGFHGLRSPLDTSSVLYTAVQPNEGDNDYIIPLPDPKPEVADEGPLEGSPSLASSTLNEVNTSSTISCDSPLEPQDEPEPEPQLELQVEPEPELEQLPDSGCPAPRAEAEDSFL

| pIC50 [1] | pIC50 [2] | Structure (SMILES) |
| --- | --- | --- |
| ≤ 6.00 | ≤ 6.00 | Cc1cncc(C(=O)Nc2cccc([C@H](C)Nc3cncc4c3c(C)nn4-c3cnn(C)c3)c2)c1 [Compound 751, (S)-5-methyl-N-(3-(1-((3-methyl-1-(1-methyl-1H-pyrazol-4-yl)-1H-pyrazolo[3,4-c]pyridin-4-yl)amino)ethyl)phenyl)nicotinamide] |
| > 6.52 | > 6.52 | C[C@H](Nc1cnc2cnn(C)c2n1)c1cccc(NC(=O)c2ccc(C3CCC3)nc2)c1 [Compound 123, (S)-6-cyclobutyl-N-(3-(1-((1-methyl-1H-pyrazolo[3,4-b]pyrazin-6-yl)amino)ethyl)phenyl)nicotinamide] |
| > 6.52 | > 6.52 | Cc1ccc(C(=O)Nc2cccc([C@H](C)Nc3cnc4cnn(C)c4n3)c2)cc1F [Compound 188, (S)-3-fluoro-4-methyl-N-(3-(1-((1-methyl-1H-pyrazolo[3,4-b]pyrazin-6-yl)amino)ethyl)phenyl)benzamide] |
| 6.00 to 6.52 | > 6.52 | CCn1cc2ncc(N[C@@H](C)c3cccc(NC(=O)Cc4cccc(C(F)(F)F)n4)c3)nc2n1 [Compound 642, (S)-N-(3-(1-((2-ethyl-2H-pyrazolo[3,4-b]pyrazin-6-yl)amino)ethyl)phenyl)-2-(6-(trifluoromethyl)pyridin-2-yl) acetamide] |
| > 6.52 | > 6.52 | C[C@H](Nc1cnc2cnn(C)c2n1)c1cccc(NC(=O)c2cnc(C(F)(F)F)s2)c1 [Compound 139, (S)-N-(3-(1-((1-methyl-1H-pyrazolo[3,4-b]pyrazin-6-yl)amino)ethyl)phenyl)-2-(trifluoromethyl)thiazole-5-carboxamide] |
| > 6.52 | > 6.52 | Cc1n[nH]c2ncc(N[C@@H](C)c3cccc(NC(=O)c4cc(C(F)(F)F)nn4C)c3)nc12 [Compound 548, (S)-1-methyl-N-(3-(1-((3-methyl-1H-pyrazolo[3,4-b]pyrazin-5-yl)amino)ethyl)phenyl)-3-(trifluoromethyl)-1H-pyrazole-5-carboxamide] |
| > 6.52 | > 6.52 | Cc1cncc(C(=O)Nc2cccc([C@H](C)Nc3cnc4cn(-c5cccnc5)nc4n3)c2)c1 [Compound 463, (S)-5-methyl-N-(3-(1-((2-(pyridin-3-yl)-2H-pyrazolo[3,4-b]pyrazin-6-yl)amino)ethyl)phenyl)nicotinamide] |
| > 6.52 | > 6.52 | Cc1cncc(C(=O)Nc2cccc([C@H](C)Nc3cnc4[nH]nc(Br)c4n3)c2)c1 [Compound 549, (S)-N-(3-(1-((3-bromo-1H-pyrazolo[3,4-b]pyrazin-5-yl)amino)ethyl)phenyl)-5-methylnicotinamide] |
| > 6.52 | > 6.52 | CCn1cc2ncc(N[C@@H](C)c3cc(NC(=O)c4ccc(CN5CCCC5)c(C(F)(F)F)c4)ccc3F)nc2n1 [Compound 443, (S)-N-(3-(1-((2-ethyl-2H-pyrazolo[3,4-b]pyrazin-6-yl)amino)ethyl)-4-fluorophenyl)-4-(pyrrolidin-1-ylmethyl)-3-(trifluoromethyl)benzamide] |
| > 6.52 | > 6.52 | CCn1cc2ncc(N[C@@H](C)c3cccc(NC(=O)c4ccc(C(F)F)s4)c3)nc2n1 [Compound 292, (S)-5-(difluoromethyl)-N-(3-(1-((2-ethyl-2H-pyrazolo[3,4-b]pyrazin-6-yl)amino)ethyl)phenyl)thiophene-2-carboxamide] |
| ≤ 6.00 | 6.00 to 6.52 | CCn1cc2ncc(N[C@@H](C)c3cccc(NC(=O)c4ccc(N5CCNCC5)nc4)c3)nc2n1 [Compound 397, (S)-N-(3-(1-((2-ethyl-2H-pyrazolo[3,4-b]pyrazin-6-yl)amino)ethyl)phenyl)-6-(piperazin-1-yl)nicotinamide] |
| > 6.52 | > 6.52 | Cc1ccc(C(=O)Nc2cccc([C@H](C)Nc3cnc4cnn(C)c4n3)c2)s1 [Compound 133, (S)-5-methyl-N-(3-(1-((1-methyl-1H-pyrazolo[3,4-b]pyrazin-6-yl)amino)ethyl)phenyl)thiophene-2-carboxamide] |
| > 6.52 | > 6.52 | CCn1cc2ncc(N[C@@H](C)c3cccc(NC(=O)c4ccc(CN5CC6(CN(C)C6)C5)c(C)c4)c3)nc2n1 [Compound 473, (S)-N-(3-(1-((2-ethyl-2H-pyrazolo[3,4-b]pyrazin-6-yl)amino)ethyl)phenyl)-3-methyl-4-((6-methyl-2,6-diazaspiro[3.3]heptan-2-yl)methyl)benzamide] |
| 6.00 to 6.52 | 6.00 to 6.52 | CCn1cc2ncc(N[C@@H](C)c3cccc(NC(=O)c4ccc(N(C)C)nc4)c3)nc2n1 [Compound 377, (S)-6-(dimethylamino)-N-(3-(1-((2-ethyl-2H-pyrazolo[3,4-b]pyrazin-6-yl)amino)ethyl)phenyl)nicotinamide] |
| > 6.52 |  | CSc1cncc(C(=O)Nc2cccc([C@H](C)Nc3cnc4cnn(C)c4n3)c2)c1 [Compound 225] |
| > 6.52 | > 6.52 | Cc1cc(C(=O)Nc2cccc([C@H](C)Nc3cnc4cnn(C)c4n3)c2)cnc1C [Compound 206, (S)-5,6-dimethyl-N-(3-(1-((1-methyl-1H-pyrazolo[3,4-b]pyrazin-6-yl)amino)ethyl)phenyl)nicotinamide] |
| > 6.52 | > 6.52 | CCn1cc2ncc(N[C@@H](C)c3cc(NC(=O)Cc4cc(F)ccc4F)ccc3C)nc2n1 [Compound 702, (S)-2-(2,5-difluorophenyl)-N-(3-(1-((2-ethyl-2H-pyrazolo[3,4-b]pyrazin-6-yl)amino)ethyl)-4-methylphenyl)acetamide] |
| > 6.52 | > 6.52 | Cc1cncc(C(=O)Nc2cccc([C@H](C)Nc3cnc4[nH]cc(-c5cnn(C)c5)c4n3)c2)c1 [Compound 563, (S)-5-methyl-N-(3-(1-((7-(1-methyl-H-pyrazol-4-yl)-5H-pyrrolo[2,3-b]pyrazin-2-yl)amino)ethyl)phenyl) nicotinamide] |
| > 6.52 | > 6.52 | CCNc1ncc(C(=O)Nc2cccc([C@H](C)Nc3cnc4cn(CC)nc4n3)c2)cc1Cl [Compound 420, (S)-5-chloro-N-(3-(1-((2-ethyl-2H-pyrazolo[3,4-b]pyrazin-6-yl)amino)ethyl)phenyl)-6-(ethylamino)nicotinamide] |
| > 6.52 | > 6.52 | Cc1n[nH]c2ncc(N[C@@H](C)c3cccc(NC(=O)c4cnn(CCF)c4)c3)nc12 [Compound 544, (S)-1-(2-fluoroethyl)-N-(3-(1-((3-methyl-1H-pyrazolo[3,4-b]pyrazin-5-yl)amino)ethyl)phenyl)-1H-pyrazole-4-carboxamide] |
| > 6.52 | > 6.52 | Cc1cc(C(=O)Nc2ccc(F)c([C@H](C)Nc3cnc4cnn(C)c4n3)c2)cnc1NC(C)C [Compound 232, (S)-N-(4-fluoro-3-(1-((1-methyl-1H-pyrazolo[3,4-b]pyrazin-6-yl)amino)ethyl)phenyl)-6-(isopropylamino)-5-methylnicotinamide] |
| 6.00 to 6.52 | > 6.52 | CCn1cc2ncc(N[C@@H](C)c3cccc(NC(=O)c4cnc(NC5CC5)c(C)c4)c3)nc2n1 [Compound 352, (S)-6-(cyclopropylamino)-N-(3-(1-((2-ethyl-2H-pyrazolo[3,4-b]pyrazin-6-yl)amino)ethyl)phenyl)-5-methylnicotinamide] |
| ≤ 6.00 | > 6.52 | COc1ccc(Cn2ccc3ncc(N[C@@H](C)c4cccc(NC(=O)c5cncc(C)c5)c4)nc32)cc1OC [Compound 88, (S)-N-(3-(1-((5-(3,4-dimethoxybenzyl)-5H-pyrrolo [2,3-b]pyrazin-3-yl)amino)ethyl)phenyl)-5-methylnicotinamide] |
| ≤ 6.00 | > 6.52 | Cc1cncc(C(=O)Nc2cccc([C@H](C)Nc3cnc4cnn(C5CCOC5)c4n3)c2)c1 (stereo partly drawn) [Compound 182, 5-methyl-N-(3-((1S)-1-((1-(tetrahydrofuran-3-yl)-1H-pyrazolo[3,4-b]pyrazin-6-yl)amino)ethyl)phenyl) nicotinamide] |

| Structure (SMILES) | pIC50 [1] | pIC50 [2] |
| --- | --- | --- |
| Cc1cc(C(=O)Nc2cccc([C@H](C)Nc3cnc4cnn(C)c4n3)c2)cnc1OCC(C)C [Compound 229, (S)-6-isobutoxy-5-methyl-N-(3-(1-((1-methyl-1H-pyrazolo[3,4-b]pyrazin-6-yl)amino)ethyl)phenyl)nicotinamide] | > 6.52 | > 6.52 |
| CC(=O)OC(C)OC(=O)c1ccc(C(=O)Nc2cccc([C@H](C)Nc3cnc4cnn(C)c4n3)c2)cc1C (stereo partly drawn) [Compound 256, 1-acetoxyethyl 2-methyl-4-((3-((S)-1-((1-methyl-1H-pyrazolo[3,4-b]pyrazin-6-yl)amino)ethyl)phenyl)carbamoyl) benzoate] | > 6.52 | > 6.52 |
